{
  "source": "patent US6770661B2",
  "about": "“Aryl substituted pyridines and their use” (Euro-Celtique S.A., priority 2001, dated 2004)",
  "target": "rBIIa/beta 1 sodium channels expressed in Xenopus oocytes (Rattus norvegicus, UniProt P04775)",
  "sequence (P04775 whole entry)": "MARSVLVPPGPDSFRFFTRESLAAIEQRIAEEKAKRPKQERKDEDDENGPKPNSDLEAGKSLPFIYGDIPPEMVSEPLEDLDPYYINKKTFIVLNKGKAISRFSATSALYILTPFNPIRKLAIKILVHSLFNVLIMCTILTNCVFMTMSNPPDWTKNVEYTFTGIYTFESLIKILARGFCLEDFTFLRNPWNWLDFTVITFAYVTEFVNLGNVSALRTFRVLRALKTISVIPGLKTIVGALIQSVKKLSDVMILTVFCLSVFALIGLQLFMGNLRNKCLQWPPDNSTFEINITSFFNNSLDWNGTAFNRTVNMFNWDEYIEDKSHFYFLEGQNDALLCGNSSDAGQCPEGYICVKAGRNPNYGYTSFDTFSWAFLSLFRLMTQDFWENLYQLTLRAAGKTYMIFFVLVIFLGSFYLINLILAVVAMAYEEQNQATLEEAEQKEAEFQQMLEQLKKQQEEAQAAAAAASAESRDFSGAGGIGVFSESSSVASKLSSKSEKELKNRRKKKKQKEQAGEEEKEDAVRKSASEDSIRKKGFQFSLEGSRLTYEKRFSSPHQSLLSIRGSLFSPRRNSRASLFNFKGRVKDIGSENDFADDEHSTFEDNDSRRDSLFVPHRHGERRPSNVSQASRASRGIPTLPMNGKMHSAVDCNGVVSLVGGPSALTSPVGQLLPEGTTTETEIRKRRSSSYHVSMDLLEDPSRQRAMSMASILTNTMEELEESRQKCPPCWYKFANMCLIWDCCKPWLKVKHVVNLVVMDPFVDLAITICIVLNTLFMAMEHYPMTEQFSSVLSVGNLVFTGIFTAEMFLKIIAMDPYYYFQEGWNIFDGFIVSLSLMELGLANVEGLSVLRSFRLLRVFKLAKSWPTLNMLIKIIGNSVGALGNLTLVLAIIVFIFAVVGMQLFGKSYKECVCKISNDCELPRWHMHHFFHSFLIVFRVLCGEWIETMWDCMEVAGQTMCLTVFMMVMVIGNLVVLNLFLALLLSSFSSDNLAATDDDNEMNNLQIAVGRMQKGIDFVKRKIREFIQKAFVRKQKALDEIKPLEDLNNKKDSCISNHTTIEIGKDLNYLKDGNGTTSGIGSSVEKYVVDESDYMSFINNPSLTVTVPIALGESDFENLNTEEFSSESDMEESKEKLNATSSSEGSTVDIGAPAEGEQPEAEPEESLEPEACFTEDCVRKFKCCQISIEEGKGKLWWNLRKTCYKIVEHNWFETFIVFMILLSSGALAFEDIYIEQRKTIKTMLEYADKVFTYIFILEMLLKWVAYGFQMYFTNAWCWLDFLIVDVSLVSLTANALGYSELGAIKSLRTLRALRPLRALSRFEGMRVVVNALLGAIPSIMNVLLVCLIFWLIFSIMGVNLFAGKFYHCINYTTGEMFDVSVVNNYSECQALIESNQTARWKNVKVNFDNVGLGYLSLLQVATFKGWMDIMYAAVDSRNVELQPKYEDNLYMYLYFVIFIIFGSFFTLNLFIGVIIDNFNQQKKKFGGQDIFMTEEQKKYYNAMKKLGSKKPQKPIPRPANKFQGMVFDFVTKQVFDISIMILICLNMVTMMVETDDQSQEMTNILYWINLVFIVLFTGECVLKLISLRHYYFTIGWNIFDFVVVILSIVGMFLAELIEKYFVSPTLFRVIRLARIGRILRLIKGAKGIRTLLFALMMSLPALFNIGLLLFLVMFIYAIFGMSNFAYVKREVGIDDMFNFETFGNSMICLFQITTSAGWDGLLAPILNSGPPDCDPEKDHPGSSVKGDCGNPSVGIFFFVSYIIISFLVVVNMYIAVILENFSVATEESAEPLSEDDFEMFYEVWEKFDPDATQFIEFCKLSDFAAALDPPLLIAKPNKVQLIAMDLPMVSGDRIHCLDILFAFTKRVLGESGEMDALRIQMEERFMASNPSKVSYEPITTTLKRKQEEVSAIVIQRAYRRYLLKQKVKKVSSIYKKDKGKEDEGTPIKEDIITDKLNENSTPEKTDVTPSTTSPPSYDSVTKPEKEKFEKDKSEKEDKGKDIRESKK",
  "sequence (Q00954 19-218 partner)": "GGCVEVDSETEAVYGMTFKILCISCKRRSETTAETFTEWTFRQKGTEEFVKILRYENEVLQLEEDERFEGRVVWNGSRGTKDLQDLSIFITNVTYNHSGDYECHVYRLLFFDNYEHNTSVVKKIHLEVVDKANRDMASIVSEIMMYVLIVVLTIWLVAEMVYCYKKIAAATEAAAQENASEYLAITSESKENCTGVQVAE",
  "assay": "Electrophysiological in vitro assay, two-electrode voltage clamp, sodium channel blockade",
  "format": "cell-based",
  "details": "apparent inhibition constant for the inactivated state, from single point inhibition data; holding potential −120 mV, 4 second depolarization; read-out: RBIIA/β1 Ki",
  "description": "Electrophysiological Assay:\nElectrophysiological Assay was used to measure potencies of compounds of the present invention rBIIa/beta 1 sodium channels expressed in Xenopus oocytes.\nPreparation of cRNA encoding cloned rat brain type IIa (rBIIa) and beta 1 (β1): cDNA clones encoding the rat brain beta 1 subunit were cloned in house using standard methods, and mRNA were prepared by standard methods. mRNA encoding rBIIa was provided by Dr. A. Golden (UC Irvine). The mRNAs were diluted and stored at −80° C. in 1 μL aliquots until injection. […]\nElectrophysiology: Membrane current responses were recorded in frog Ringer solution containing 115 mM NaCl, 2 mM KCl, 1.8 mM CaCl2, 5 mM HEPES, pH 7.4. […]\nVoltage protocols for evoking sodium channel currents: The standard holding potential for whole oocyte clamp was −120 mV. […] Peak currents were measured as the maximum negative current after depolarizing voltage steps. […]\nThe purpose was to find compounds that are state dependent modifiers of neuronal sodium channels. […] Sodium currents were measured at this test pulse before and after the application of the tested compound. Data was acquired using pClamp 8.0 software and analyzed with clampfit software (Axon instruments). […]",
  "data": [
    {"smiles": "Cc1cc(OCCN2CCCCC2)cc(-c2ccc(Oc3ccc(F)cc3)cc2)n1", "note": "[2-[4-(4-Fluorophenoxy)phenyl]-6-methyl-4-[2-(N-piperidinyl)ethoxy]-pyridine]", "values": [
      {"measurement": "Ki", "value": 180, "unit": "nM"}
    ]},
    {"smiles": "NC(=O)c1cc(N2CCOCC2)cc(-c2ccc(Oc3ccc(F)cc3)cc2)n1", "note": "[2-[4-(4-Fluorophenoxy)phenyl]-4-N-morpholinylpyridine-6-carboxamide]", "values": [
      {"measurement": "Ki", "value": 290, "unit": "nM"}
    ]}
  ]
}
